# Reference: patent US8927569
# Settings: from C=CCC(C)(C)COC(=O)N[C@H](C(=O)N1C[C@H](Oc2cc(=O)[nH]c3cc(OC)c(C=C)cc23)C[C@H]1C(=O)OC)C1CCCCC1; rcm bond; Zhan 1b catalyst; DCM; 5.0 mM; 40.0 °C; 32.0 h
smiles,measurement,value
COC(=O)[C@@H]1C[C@@H]2CN1C(=O)[C@H](C1CCCCC1)NC(=O)OCC(C)(C)C/C=C/c1cc3c(cc(=O)[nH]c3cc1OC)O2,"ring closure, yield of all isomers",99%
